SMILES strings stand for the structures. pIC50, pKi: −log10 of the molar value.

What all share (set-up): species or system Saccharomyces cerevisiae
Assay [1] in a line: Inhibition of yeast alpha-glucosidase using PNP glycoside as substrate preincubated for 30 mins followed by substrate addition measured for 60 secs by spectrophotometric analysis.
The nature of assay [2]: Non-competitive inhibition of yeast alpha-glucosidase using PNP glycoside as substrate assessed as enzyme-substrate-inhibitor complex preincubated for 30 mins followed by substrate addition measured for 60 secs by Lineweaver-Burk plot analysis.
Assay [3] can be described thus: Non-competitive inhibition of yeast alpha-glucosidase using PNP glycoside as substrate assessed as enzyme-inhibitor complex preincubated for 30 mins followed by substrate addition measured for 60 secs by Lineweaver-Burk plot analysis.

Broadly, the pIC50 is the negative decadic logarithm of the IC50, by convention in mol/L. A low value points to a high IC50. In the case of `O=C(Oc1cc(O)c2c(=O)c3ccccc3oc2c1)c1ccccc1`, the pIC50 in assay [1] was 4.44.
`Cc1ccc(C(=O)Oc2cc(O)c3c(=O)c4ccccc4oc3c2)cc1` had a pIC50 in assay [1] of 3.98.
The same measure, in the same setting: for `O=C(Oc1cc(O)c2c(=O)c3ccccc3oc2c1)c1cccc2ccccc12` the value was 4.67; for `O=C(Oc1cc(O)c2c(=O)c3ccccc3oc2c1)c1ccncc1`, 4.63.
What is called pKi is −log10 of the Ki, conventionally taken in molar units. `CC(C)(C)[Si](C)(C)Oc1ccc(C(=O)Oc2cc(O)c3c(=O)c4ccccc4oc3c2)cc1` had a pIC50 in assay [1] of 4.97. Moreover, the pKi in assay [2] is 4.92; in assay [3], 4.88.
`O=C(Oc1cc(O)c2c(=O)c3ccccc3oc2c1)c1cccnc1` gave a negative-log IC50 (pIC50) in assay [1] of 4.37.
The compound `COc1ccc(C(=O)Oc2cc(O)c3c(=O)c4ccccc4oc3c2)cc1` had a pIC50 in assay [1] of 4.63.
For `O=c1c2ccccc2oc2cc(O)cc(O)c12`, in assay [1], the pIC50 was 3.84.
`O=C(Oc1cc(O)c2c(=O)c3ccccc3oc2c1)c1ccc(O)cc1` showed a pIC50 in assay [1] of 4.88. For the same compound, the negative logarithm of the Ki (pKi) in assay [2] is 4.81; in assay [3], 4.75.
In turn, `COc1cc(C(=O)Oc2cc(O)c3c(=O)c4ccccc4oc3c2)cc(OC)c1OC` had a pIC50 in assay [1] of 4.24.
The same measure, in the same setting: the result for `OC[C@H]1NC[C@H](O)[C@@H](O)[C@@H]1O` [DUVOGLUSTAT] reads 4.40; that for `O=C(Oc1cc(O)c2c(=O)c3ccccc3oc2c1)c1ccc2ccccc2c1`, 4.51; that for `CNc1ccc(C(=O)Oc2cc(O)c3c(=O)c4ccccc4oc3c2)cc1`, 4.70.
For `O=C(Oc1cc(O)c2c(=O)c3ccccc3oc2c1)c1ccccn1`, the pIC50 in assay [1] was 4.38.
Compound `O=C(/C=C/c1ccccc1)Oc1cc(O)c2c(=O)c3ccccc3oc2c1` gave a negative logarithm of the IC50 (pIC50) in assay [1] of 4.33.
The compound `O=C(Oc1cc(O)c2c(=O)c3ccccc3oc2c1)c1cccc(Br)c1` gave a negative logarithm of the IC50 (pIC50) in assay [1] of 4.94. The negative-log Ki (pKi) in assay [2] was 4.76; in assay [3] it was 4.74.
Take `O=C(Oc1cc(O)c2c(=O)c3ccccc3oc2c1)c1ccccc1F`: in assay [1], the negative-log IC50 (pIC50) is 4.50.
The same measure, in the same setting: the result for `O=C(Oc1cc(O)c2c(=O)c3ccccc3oc2c1)c1ccccc1Cl` reads 4.66.
